Publication PMC10351190, “Isolation and identification of active ingredients and biological activity of Dioscorea nipponica Makino” (BMC Complementary Medicine and Therapies, 2023)

Target: T1, α-glucosidase
T1 construct: gene MAL12
Experiment: pNPG hydrolysis, absorbance […] nm
Assay type: biochemical
Details: pNPG substrate ([…] stock), pH […] °C, […] phosphate

| IC50 | Structure (SMILES) |
| --- | --- |
| > 800 µM | O=C(O)c1cc(O)c(O)c(O)c1 [compound 5, gallic acid] |
| > 800 µM | COC(=O)c1cc(O)c(O)c(O)c1 [compound 6, methyl gallate] |
| > 800 µM | COc1cc(C(=O)O)ccc1O [compound 7, vanillic acid] |

The next lines start with the molecule.

| Structure (SMILES) | IC50 |
| --- | --- |
| COc1cc2c(ccc3c(-c4c(O)cc(OC)c5c4ccc4cc(O)c(OC)cc45)c(O)cc(OC)c32)cc1O [compound 8, 2,2',7,7'-tetrahydroxy-4,4',6,6'-tetramethoxy-1,1'-biphenanthrenes] | > 800 µM |
| COc1c(O)cc(C[C@H](O)c2ccccc2)c(C(=O)O)c1O [compound 1, diosniposide E] | > 800 µM |
| O=C(/C=C/C=C/c1ccc(O)cc1)CCc1ccc(O)cc1 [compound 3, 1,7-bis(4-hydroxyphenyl)hepta-4E,6E-dien-3-one] | 1.6 ± 0.17 µM |
| O=c1cc(-c2ccc(O)cc2)oc2cc(O)cc(O)c12 [compound 9, apigenin] | > 800 µM |
| O=C(O)c1c(O)cc(O)cc1C[C@H](O)c1ccccc1 [compound 2, diosniponol C] | > 800 µM |
| COc1cc2c(ccc3cc(O)cc(OC)c32)cc1O [compound 4, 3,5-dimethoxyphenanthrene-2,7-diol] | 31.4 ± 0.18 µM |
